Experiments:
[1] = test system: human colon cancer (HCT116) cells; test: MTT cytotoxicity assay, HCT116; assay type: cell-based; conditions: five doses 0.01-100 µM
Method: (§1) The cytotoxicity of the desired compounds was assessed through MTT assay against two human cancer cell lines, human breast cancer (MCF-7) and colon cancer (HCT116), and one normal cell line, human embryonic kidney 293T (HEK293T). CPT and etoposide (VP-16) were used as positive controls. The compounds were incubated with cells for 72 h in a five-dose assay ranging from 0.01 to 100 µΜ. After the drug treatments, MTT solution was added to test the percentage growth of tumor cells.
(§2) The cells were cultured on RPMI 1640 Medium at 37 °C in a humidified atmosphere with 5% CO2. The cytotoxicities of the target compounds were evaluated through MTT assay against two human cancer cell lines (human breast cancer MCF-7 and human colon cancer HCT116). For the compound treatment experiments, the cancer cells were treated with the compounds (pre-dissolved in DMSO) via a five-dose assay ranging from 10^−8 to 10^−4 M. After incubation for 72 h at 37 °C, MTT solution (20 μL, 2.5 mg/mL) in PBS (PBS without MTT as the blank) was added to each well of the culture plate. After incubation for 4 h, the formazan crystal formed in the well was dissolved in 100 μL of DMSO for an optical density of 570 nm. The IC50 value was calculated using nonlinear regression analysis (GraphPad Prism). Every experiment was conducted three times, independently.

[2] = test system: human breast cancer (MCF-7) cells; test: MTT cytotoxicity assay, MCF-7; assay type: cell-based; conditions: five doses 0.01-100 µM
Method: as §1, §2

calf thymus Top1 = target: T1, calf thymus Top1 (Bos taurus, UniProt F1MN93); test: Top1-mediated DNA relaxation assay; assay type: biochemical; conditions: compounds at 50 µM; semi-quantitative, relative to CPT at 50 µM
T1 construct: 1 unit of calf thymus Top1; from tissue; host or cells: calf thymus
T1 sequence (F1MN93 1-767): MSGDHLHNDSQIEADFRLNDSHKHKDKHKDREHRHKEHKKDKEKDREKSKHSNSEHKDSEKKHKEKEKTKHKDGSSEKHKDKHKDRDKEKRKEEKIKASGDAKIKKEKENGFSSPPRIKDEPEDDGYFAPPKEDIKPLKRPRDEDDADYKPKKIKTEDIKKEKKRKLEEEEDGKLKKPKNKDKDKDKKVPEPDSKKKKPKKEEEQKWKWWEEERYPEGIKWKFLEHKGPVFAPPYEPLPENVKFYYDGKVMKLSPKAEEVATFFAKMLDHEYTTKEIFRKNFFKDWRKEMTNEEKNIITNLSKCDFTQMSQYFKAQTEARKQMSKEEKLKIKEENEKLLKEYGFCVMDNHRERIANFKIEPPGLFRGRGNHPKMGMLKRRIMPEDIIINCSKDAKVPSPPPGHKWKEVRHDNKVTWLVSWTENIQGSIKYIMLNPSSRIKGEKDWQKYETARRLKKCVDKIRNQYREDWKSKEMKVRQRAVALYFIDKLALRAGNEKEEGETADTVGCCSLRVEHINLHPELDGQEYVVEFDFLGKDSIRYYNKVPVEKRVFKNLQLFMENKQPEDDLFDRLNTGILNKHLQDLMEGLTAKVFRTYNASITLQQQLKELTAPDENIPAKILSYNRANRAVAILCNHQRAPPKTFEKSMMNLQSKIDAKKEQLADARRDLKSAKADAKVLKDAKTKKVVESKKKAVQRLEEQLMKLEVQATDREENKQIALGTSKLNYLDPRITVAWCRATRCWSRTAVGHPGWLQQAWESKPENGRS
Method: The synthesized compounds 6–37 were evaluated for Top1 inhibitory activity by measurement of the Top1-mediated DNA relaxation assay. The compounds were tested at 50 µΜ using CPT as positive control, and the results were semi-quantitatively expressed relative to CPT at 50 µΜ as follows: ++++, more than 80% activity; +++, between 40% and 79% activity; ++, between 10% and 39% activity; +, less than 10% activity. […] In phenyl A, the 4-position halogen (X) remarkably affected the inhibition against Top1. […] In phenyl B, the introduction of substituents at the 3-position was beneficial for the Top1 inhibition, and the derivatives presented good tolerance of the 3-substituents, since compounds 8 (++++) and 13 (+++) with electron-donating -Me or -OMe and also compound 19 (+++) with electron-withdrawing -Br had good inhibition against Top1. For substituents at the 4-position, the strong electron-withdrawing -CF3 (10, +++) and -F (15, +++) increased the Top1 inhibitory activity compared to compound 6 (R = H), while the weak electron-withdrawing -Cl (17, +) and the electron-donating -Me (9, +) and -OMe (14, +) decreased the activity, with the exception of tert-Bu (11, +++).
As previously mentioned, compound 8 had the best inhibition activity against Top1, and therefore was selected for further investigation. A semi-quantitative Top1-mediated relaxation assay of compound 8 was performed at concentrations of 0.2, 1, 5, 25 and 125 μM.
The compounds were tested for their Top1 inhibitory activity using a Top1-mediated relaxation assay. Briefly, the reaction mixture (20 μL) with 0.5 μg of supercoiled pBR322 DNA in relaxation buffer (10 mM Tris-HCl, pH 7.5, 50 mM KCl, 5 mM MgCl2, 15 μg/mL BSA, 40 μg/mL DTT) was incubated with 1 unit of calf thymus Top1 in the absence or in the presence of the compound for 30 min at 37 °C. Then, the reaction solution was added with 6 × loading buffer (4 μL) and was analyzed using a 0.8% agarose gel in TBE buffer at 4.6 V/cm for 1.5 h. Gel was stained with 1 × GelRed for 30 min and subsequently visualized with a UV transilluminator.

SMILES	IC50 ([1]; Homo sapiens, HCT-116, 72 h) [µM]	IC50 ([2]; Homo sapiens, MCF7, 72 h) [µM]	melting point [°C]	Relaxation Assay (Top1 inhibitory activity) (calf thymus Top1)	IC50 ([1]; 72 h) [µM]	IC50 ([2]; 72 h) [µM]
Fc1ccc(-c2csc(/C=C/c3ccccc3)n2)cc1 [Compound 6, (E)-4-(4-fluorophenyl)-2-styrylthiazole]	5.78 ± 1.89	22.2 ± 5.01	129 to 130			
Cc1ccccc1/C=C/c1nc(-c2ccc(F)cc2)cs1 [Compound 7, (E)-2-(2-methylstyryl)-4-(4-fluorophenyl)thiazole]	6.47 ± 0.62	31.4 ± 4.21	74 to 75			
Cc1ccc(/C=C/c2nc(-c3ccc(F)cc3)cs2)cc1 [Compound 9, (E)-2-(4-methylstyryl)-4-(4-fluorophenyl)thiazole]	21.9 ± 4.29	65.5 ± 3.11	164 to 166	+ (less than 10% activity)		
Fc1ccc(-c2csc(/C=C/c3ccc(C(F)(F)F)cc3)n2)cc1 [Compound 10, (E)-2-(4-(trifluoromethyl)styryl)-4-(4-fluorophenyl)thiazole]	22.6 ± 2.41	17.3 ± 1.62	111 to 113			
COc1ccccc1/C=C/c1nc(-c2ccc(F)cc2)cs1 [Compound 12, (E)-2-(2-methoxystyryl)-4-(4-fluorophenyl)thiazole]	17.8 ± 1.16	49.5 ± 9.08	73 to 74			
COc1cccc(/C=C/c2nc(-c3ccc(F)cc3)cs2)c1 [Compound 13, (E)-2-(3-methoxystyryl)-4-(4-fluorophenyl)thiazole]	< 5	< 10	115 to 116		4.99 ± 0.8	9.85 ± 0.47
COc1ccc(/C=C/c2nc(-c3ccc(F)cc3)cs2)cc1 [Compound 14, (E)-2-(4-methoxystyryl)-4-(4-fluorophenyl)thiazole]	> 100	> 100	124 to 125	+ (less than 10% activity)		
Fc1ccc(/C=C/c2nc(-c3ccc(F)cc3)cs2)cc1 [Compound 15, (E)-2-(4-fluorostyryl)-4-(4-fluorophenyl)thiazole]	10.2 ± 1.07		147 to 149			
Fc1ccc(-c2csc(/C=C/c3ccccc3Cl)n2)cc1 [Compound 16, (E)-2-(2-chlorostyryl)-4-(4-fluorophenyl)thiazole]	8.42 ± 1.1	15.2 ± 1.18	97 to 98			
Fc1ccc(-c2csc(/C=C/c3ccc(Cl)cc3)n2)cc1 [Compound 17, (E)-2-(4-chlorostyryl)-4-(4-fluorophenyl)thiazole]	27.1 ± 0.41	43.3 ± 1.42	171 to 173	+ (less than 10% activity)		
Fc1ccc(-c2csc(/C=C/c3ccccc3Br)n2)cc1 [Compound 18, (E)-2-(2-bromostyryl)-4-(4-fluorophenyl)thiazole]	12.3 ± 1.1	20 ± 2.07	94 to 95			
Fc1ccc(-c2csc(/C=C/c3cccc(Br)c3)n2)cc1 [Compound 19, (E)-2-(3-bromostyryl)-4-(4-fluorophenyl)thiazole]	6.95 ± 0.33	11.5 ± 1.74	142 to 144			
Fc1ccc(-c2csc(/C=C/c3ccc(Cl)cc3Cl)n2)cc1 [Compound 20, (E)-2-(2,4-Dichlorostyryl)-4-(4-fluorophenyl)thiazole]	54.8 ± 0.73	72.4 ± 2.15	131 to 133	+ (less than 10% activity)		
Cc1ccccc1/C=C/c1nc(-c2ccc(Cl)cc2)cs1 [Compound 21, (E)-4-(4-chlorophenyl)-2-(2-methylstyryl)thiazole]	41.7 ± 1.92	39.5 ± 1.06	83 to 84	+ (less than 10% activity)		
Cc1cccc(/C=C/c2nc(-c3ccc(Cl)cc3)cs2)c1 [Compound 22, (E)-4-(4-chlorophenyl)-2-(3-methylstyryl)thiazole]	> 100	> 100	133 to 134			
COc1ccccc1/C=C/c1nc(-c2ccc(Cl)cc2)cs1 [Compound 24, (E)-4-(4-chlorophenyl)-2-(2-methoxystyryl)thiazole]	49.4 ± 3.49	> 100	93 to 95			
Clc1ccc(-c2csc(/C=C/c3ccccc3Cl)n2)cc1 [Compound 25, (E)-4-(4-chlorophenyl)-2-(2-chlorostyryl)thiazole]	51 ± 3.7	48.5 ± 6.67	109 to 110	+ (less than 10% activity)		
Cc1cccc(/C=C/c2nc(-c3ccc(Br)cc3)cs2)c1 [Compound 26, (E)-4-(4-bromophenyl)-2-(3-methylstyryl)thiazole]		10.8 ± 2.42	174 to 176			
FC(F)(F)c1ccc(/C=C/c2nc(-c3ccc(Br)cc3)cs2)cc1 [Compound 27, (E)-4-(4-bromophenyl)-2-(4-(trifluoromethyl)styryl)thiazole]	34.9 ± 5.66	24.3 ± 5.62	102 to 103			
CC(C)(C)c1ccc(/C=C/c2nc(-c3ccc(Br)cc3)cs2)cc1 [Compound 28, (E)-4-(4-bromophenyl)-2-(4-(tert-butyl)styryl)thiazole]			89 to 90	+ (less than 10% activity)		
Fc1ccc(/C=C/c2nc(-c3ccc(Br)cc3)cs2)cc1 [Compound 29, (E)-4-(4-bromophenyl)-2-(4-fluorostyryl)thiazole]	63.2 ± 6.17	> 100	176 to 178			
Oc1cccc(/C=C/c2nc(-c3ccc(Br)cc3)cs2)c1 [Compound 34, (E)-3-(2-(4-(4-bromophenyl)thiazol-2-yl)vinyl)phenol]	9.99 ± 0.19	22.8 ± 1.4		+ (less than 10% activity)		
CC(C)=CCOc1cccc(/C=C/c2nc(-c3ccc(Br)cc3)cs2)c1 [Compound 36, (E)-4-(4-bromophenyl)-2-(3-((3-methylbut-2-en-1-yl)oxy)styryl)thiazole]	> 100	> 100	122 to 123			
COc1cc([C@@H]2c3cc4c(cc3[C@@H](O[C@@H]3O[C@@H]5CO[C@@H](C)O[C@H]5[C@H](O)[C@H]3O)[C@H]3COC(=O)[C@H]23)OCO4)cc(OC)c1O [vp-16, etoposide, reference compound]	18.9 ± 1.35	24.7 ± 3.12				
